Oligonucleotides are given in HELM: sugar(base)linkage, 5' to 3'; d 2'-deoxyribose, r ribose, m 2'-O-methylribose, p phosphate. ss, as = sense and antisense strand
Each substance was assayed against Cacnb1 (rat) (assay: reporter assay of Huesken 2005). Settings: siRNA.
Also: test concentration or dose not given here.

Going from “RNA1{r(A)p.r(A)p.r(G)p.r(G)p.r(G)p.r(C)p.r(G)p.r(G)p.r(U)p.r(U)p.r(C)p.r(A)p.r(A)p.r(A)p.r(A)p.r(G)p.r(G)p.r(U)p.r(C)p.d(T)p.d(T)}|RNA2{r(G)p.r(A)p.r(C)p.r(C)p.r(U)p.r(U)p.r(U)p.r(U)p.r(G)p.r(A)p.r(A)p.r(C)p.r(C)p.r(G)p.r(C)p.r(C)p.r(C)p.r(U)p.r(U)p.d(T)p.d(C)}$$$RNA1{StrandType:ss}|RNA2{StrandType:as}$” to “RNA1{r(A)p.r(A)p.r(U)p.r(G)p.r(U)p.r(U)p.r(G)p.r(G)p.r(C)p.r(U)p.r(A)p.r(C)p.r(A)p.r(A)p.r(U)p.r(C)p.r(C)p.r(G)p.r(U)p.d(T)p.d(T)}|RNA2{r(A)p.r(C)p.r(G)p.r(G)p.r(A)p.r(U)p.r(U)p.r(G)p.r(U)p.r(A)p.r(G)p.r(C)p.r(C)p.r(A)p.r(A)p.r(C)p.r(A)p.r(U)p.r(U)p.d(T)p.d(G)}$$$RNA1{StrandType:ss}|RNA2{StrandType:as}$”, the normalised inhibition (eCFP-eYFP dual reporter) rises from 57.7% to 90.9%.

Going from “RNA1{r(A)p.r(C)p.r(A)p.r(C)p.r(G)p.r(G)p.r(A)p.r(G)p.r(C)p.r(C)p.r(A)p.r(G)p.r(G)p.r(A)p.r(G)p.r(A)p.r(C)p.r(U)p.r(C)p.d(T)p.d(T)}|RNA2{r(G)p.r(A)p.r(G)p.r(U)p.r(C)p.r(U)p.r(C)p.r(C)p.r(U)p.r(G)p.r(G)p.r(C)p.r(U)p.r(C)p.r(C)p.r(G)p.r(U)p.r(G)p.r(U)p.d(A)p.d(G)}$$$RNA1{StrandType:ss}|RNA2{StrandType:as}$” to “RNA1{r(A)p.r(C)p.r(C)p.r(C)p.r(C)p.r(A)p.r(G)p.r(C)p.r(A)p.r(A)p.r(A)p.r(C)p.r(A)p.r(C)p.r(A)p.r(U)p.r(U)p.r(A)p.r(U)p.d(T)p.d(T)}|RNA2{r(A)p.r(U)p.r(A)p.r(A)p.r(U)p.r(G)p.r(U)p.r(G)p.r(U)p.r(U)p.r(U)p.r(G)p.r(C)p.r(U)p.r(G)p.r(G)p.r(G)p.r(G)p.r(U)p.d(T)p.d(G)}$$$RNA1{StrandType:ss}|RNA2{StrandType:as}$”, the normalised inhibition (eCFP-eYFP dual reporter) rises from 48.8% to 63.4%.

Going from “RNA1{r(A)p.r(G)p.r(A)p.r(A)p.r(U)p.r(G)p.r(A)p.r(G)p.r(C)p.r(U)p.r(G)p.r(G)p.r(A)p.r(G)p.r(G)p.r(G)p.r(C)p.r(U)p.r(G)p.d(T)p.d(T)}|RNA2{r(C)p.r(A)p.r(G)p.r(C)p.r(C)p.r(C)p.r(U)p.r(C)p.r(C)p.r(A)p.r(G)p.r(C)p.r(U)p.r(C)p.r(A)p.r(U)p.r(U)p.r(C)p.r(U)p.d(T)p.d(A)}$$$RNA1{StrandType:ss}|RNA2{StrandType:as}$” to “RNA1{r(A)p.r(G)p.r(C)p.r(A)p.r(A)p.r(C)p.r(C)p.r(A)p.r(C)p.r(C)p.r(C)p.r(A)p.r(C)p.r(C)p.r(U)p.r(G)p.r(G)p.r(C)p.r(C)p.d(T)p.d(T)}|RNA2{r(G)p.r(G)p.r(C)p.r(C)p.r(A)p.r(G)p.r(G)p.r(U)p.r(G)p.r(G)p.r(G)p.r(U)p.r(G)p.r(G)p.r(U)p.r(U)p.r(G)p.r(C)p.r(U)p.d(G)p.d(G)}$$$RNA1{StrandType:ss}|RNA2{StrandType:as}$”, the normalised inhibition (eCFP-eYFP dual reporter) falls from 75.3% to 31.6%.

Compared with “RNA1{r(A)p.r(G)p.r(C)p.r(C)p.r(G)p.r(G)p.r(C)p.r(C)p.r(G)p.r(U)p.r(C)p.r(A)p.r(G)p.r(A)p.r(C)p.r(U)p.r(C)p.r(C)p.r(G)p.d(T)p.d(T)}|RNA2{r(C)p.r(G)p.r(G)p.r(A)p.r(G)p.r(U)p.r(C)p.r(U)p.r(G)p.r(A)p.r(C)p.r(G)p.r(G)p.r(C)p.r(C)p.r(G)p.r(G)p.r(C)p.r(U)p.d(C)p.d(G)}$$$RNA1{StrandType:ss}|RNA2{StrandType:as}$”, “RNA1{r(A)p.r(G)p.r(C)p.r(U)p.r(C)p.r(U)p.r(C)p.r(U)p.r(A)p.r(A)p.r(A)p.r(A)p.r(C)p.r(C)p.r(U)p.r(C)p.r(G)p.r(C)p.r(U)p.d(T)p.d(T)}|RNA2{r(A)p.r(G)p.r(C)p.r(G)p.r(A)p.r(G)p.r(G)p.r(U)p.r(U)p.r(U)p.r(U)p.r(A)p.r(G)p.r(A)p.r(G)p.r(A)p.r(G)p.r(C)p.r(U)p.d(G)p.d(G)}$$$RNA1{StrandType:ss}|RNA2{StrandType:as}$” is higher in normalised inhibition (eCFP-eYFP dual reporter): 44.2% for the first, 56.1% for the second.

First: RNA1{r(C)p.r(A)p.r(G)p.r(G)p.r(A)p.r(G)p.r(A)p.r(U)p.r(G)p.r(A)p.r(G)p.r(G)p.r(U)p.r(G)p.r(C)p.r(C)p.r(A)p.r(G)p.r(U)p.d(T)p.d(T)}|RNA2{r(A)p.r(C)p.r(U)p.r(G)p.r(G)p.r(C)p.r(A)p.r(C)p.r(C)p.r(U)p.r(C)p.r(A)p.r(U)p.r(C)p.r(U)p.r(C)p.r(C)p.r(U)p.r(G)p.d(G)p.d(A)}$$$RNA1{StrandType:ss}|RNA2{StrandType:as}$
Second: RNA1{r(C)p.r(C)p.r(A)p.r(A)p.r(G)p.r(G)p.r(A)p.r(C)p.r(U)p.r(U)p.r(C)p.r(C)p.r(U)p.r(G)p.r(C)p.r(A)p.r(C)p.r(A)p.r(U)p.d(T)p.d(T)}|RNA2{r(A)p.r(U)p.r(G)p.r(U)p.r(G)p.r(C)p.r(A)p.r(G)p.r(G)p.r(A)p.r(A)p.r(G)p.r(U)p.r(C)p.r(C)p.r(U)p.r(U)p.r(G)p.r(G)p.d(G)p.d(C)}$$$RNA1{StrandType:ss}|RNA2{StrandType:as}$
The normalised inhibition (eCFP-eYFP dual reporter) of the first is higher: 83.4% for the first, 63.2% for the second.

First: RNA1{r(C)p.r(C)p.r(A)p.r(C)p.r(C)p.r(C)p.r(A)p.r(A)p.r(U)p.r(C)p.r(C)p.r(G)p.r(C)p.r(U)p.r(G)p.r(C)p.r(U)p.r(G)p.r(A)p.d(T)p.d(T)}|RNA2{r(U)p.r(C)p.r(A)p.r(G)p.r(C)p.r(A)p.r(G)p.r(C)p.r(G)p.r(G)p.r(A)p.r(U)p.r(U)p.r(G)p.r(G)p.r(G)p.r(U)p.r(G)p.r(G)p.d(C)p.d(G)}$$$RNA1{StrandType:ss}|RNA2{StrandType:as}$
Second: RNA1{r(C)p.r(C)p.r(C)p.r(G)p.r(C)p.r(C)p.r(A)p.r(A)p.r(G)p.r(A)p.r(C)p.r(A)p.r(C)p.r(C)p.r(U)p.r(U)p.r(U)p.r(G)p.r(A)p.d(T)p.d(T)}|RNA2{r(U)p.r(C)p.r(A)p.r(A)p.r(A)p.r(G)p.r(G)p.r(U)p.r(G)p.r(U)p.r(C)p.r(U)p.r(U)p.r(G)p.r(G)p.r(C)p.r(G)p.r(G)p.r(G)p.d(A)p.d(T)}$$$RNA1{StrandType:ss}|RNA2{StrandType:as}$
The normalised inhibition (eCFP-eYFP dual reporter) of the first is higher: 81.5% for the first, 57.6% for the second.

Compared with “RNA1{r(C)p.r(C)p.r(U)p.r(G)p.r(G)p.r(A)p.r(C)p.r(G)p.r(A)p.r(G)p.r(A)p.r(A)p.r(C)p.r(C)p.r(A)p.r(A)p.r(U)p.r(U)p.r(G)p.d(T)p.d(T)}|RNA2{r(C)p.r(A)p.r(A)p.r(U)p.r(U)p.r(G)p.r(G)p.r(U)p.r(U)p.r(C)p.r(U)p.r(C)p.r(G)p.r(U)p.r(C)p.r(C)p.r(A)p.r(G)p.r(G)p.d(A)p.d(T)}$$$RNA1{StrandType:ss}|RNA2{StrandType:as}$”, “RNA1{r(C)p.r(C)p.r(U)p.r(U)p.r(A)p.r(G)p.r(C)p.r(C)p.r(C)p.r(A)p.r(G)p.r(C)p.r(U)p.r(C)p.r(G)p.r(A)p.r(G)p.r(A)p.r(A)p.d(T)p.d(T)}|RNA2{r(U)p.r(U)p.r(C)p.r(U)p.r(C)p.r(G)p.r(A)p.r(G)p.r(C)p.r(U)p.r(G)p.r(G)p.r(G)p.r(C)p.r(U)p.r(A)p.r(A)p.r(G)p.r(G)p.d(C)p.d(C)}$$$RNA1{StrandType:ss}|RNA2{StrandType:as}$” is lower in normalised inhibition (eCFP-eYFP dual reporter): 80.2% for the first, 76.8% for the second.

From the OligoGym collection
